Assay results reported in patent US12077503B2, “Substituted cyclic amides and their use as herbicides” (FMC CORPORATION, priority 2015, dated 2024).

Experiments:
Assay type in all cases: in vivo
Kochia (Kochia scoparia) [1] = test: Test A preemergence; details: Bassia scoparia, pre-emergence, 240 h, 0 to 100 scale where 0 is no effect and 100 is complete control, read-out: Kochia plant response rating
Procedure, shortened: (§1)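 Seeds sprayed preemergence with a directed soil spray, or plants at 2 to 10 cm height and one- to two-leaf stage sprayed postemergence, with test chemicals in a non-phytotoxic solvent mixture containing surfactant, in loam soil–sand blend. Injury rated visually against untreated controls after about 10 d in greenhouse, 0 (no effect) to 100 (complete control).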

[2] = tested on: barnyardgrass (Echinochloa crus-galli); test: Test A preemergence; details: Echinochloa crus-galli, pre-emergence, 240 h, 0 to 100 scale where 0 is no effect and 100 is complete control, read-out: Barnyardgrass plant response rating
Procedure, shortened: as §1

[3] = tested on: giant foxtail (Setaria faberii); test: Test A preemergence; details: Setaria faberi, pre-emergence, 240 h, 0 to 100 scale where 0 is no effect and 100 is complete control, read-out: Foxtail, Giant plant response rating
Procedure, shortened: as §1

[4] = tested on: pigweed (Amaranthus retroflexus); test: Test A preemergence; details: Amaranthus retroflexus, pre-emergence, 240 h, 0 to 100 scale where 0 is no effect and 100 is complete control, read-out: Pigweed plant response rating
[5] = tested on: ragweed (common ragweed, Ambrosia elatior); test: Test A preemergence; details: Ambrosia artemisiifolia, pre-emergence, 240 h, 0 to 100 scale where 0 is no effect and 100 is complete control, read-out: Ragweed plant response rating
Procedure, shortened: as §1

[6] = tested on: ryegrass, Italian (Italian ryegrass, Lolium multiflorum); test: Test A preemergence; details: Lolium multiflorum, pre-emergence, 240 h, 0 to 100 scale where 0 is no effect and 100 is complete control, read-out: Ryegrass, Italian plant response rating
Procedure, shortened: as §1

[7] = tested on: Galium (catchweed bedstraw, Galium aparine); test: Test A postemergence; details: Galium, post-emergence, 240 h
Procedure, shortened: as §1

Kochia (Kochia scoparia) [8] = test: Test A postemergence; details: Bassia scoparia, post-emergence, 240 h
Procedure, shortened: as §1

[9] = tested on: barnyardgrass (Echinochloa crus-galli); test: Test A postemergence; details: Echinochloa crus-galli, post-emergence, 240 h
Procedure, shortened: as §1

[10] = tested on: blackgrass (Alopecurus myosuroides); test: Test A postemergence; details: Alopecurus myosuroides, post-emergence, 240 h
Procedure, shortened: as §1

corn (Zea mays) = test: Test A postemergence; details: Zea mays, post-emergence, 240 h
Procedure, shortened: as §1

[11] = tested on: giant foxtail (Setaria faberii); test: Test A postemergence; details: Setaria faberi, post-emergence, 240 h
Procedure, shortened: as §1

[12] = tested on: pigweed (Amaranthus retroflexus); test: Test A postemergence; details: Amaranthus retroflexus, post-emergence, 240 h
Procedure, shortened: as §1

[13] = tested on: ragweed (common ragweed, Ambrosia elatior); test: Test A postemergence; details: Ambrosia artemisiifolia, post-emergence, 240 h
Procedure, shortened: as §1

[14] = tested on: ryegrass, Italian (Italian ryegrass, Lolium multiflorum); test: Test A postemergence; details: Lolium multiflorum, post-emergence, 240 h
Procedure, shortened: as §1

[15] = tested on: wheat (Triticum aestivum); test: Test A postemergence; details: Triticum aestivum, post-emergence, 240 h
Procedure, shortened: as §1

[16] = tested on: barnyardgrass (Echinochloa crus-galli); test: Test B flooded paddy test; details: Echinochloa crus-galli, 250 g ai/ha, Flood; 0 to 100 scale where 0 is no effect and 100 is complete control; read-out: Barnyardgrass plant response rating
Procedure, shortened: (§2)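 Plants at 2-leaf stage flooded to 3 cm above soil, with compounds applied directly to paddy water and that depth maintained. Plants kept in greenhouse 13–15 d. Visual rating versus controls on a 0 (no effect) to 100 (complete control) scale.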

[17] = tested on: ducksalad (Heteranthera limosa); test: Test B flooded paddy test; details: Heteranthera limosa, 250 g ai/ha, Flood; 0 to 100 scale where 0 is no effect and 100 is complete control; read-out: Ducksalad plant response rating
Procedure, shortened: as §2

rice (Oryra sativa) = test: Test B flooded paddy test; details: Oryza sativa, 250 g ai/ha, Flood; 0 to 100 scale where 0 is no effect and 100 is complete control; read-out: Rice plant response rating
Procedure, shortened: as §2

[18] = tested on: sedge, umbrella (small-flower umbrella sedge, Cyperus difformis); test: Test B flooded paddy test; details: Cyperus difformis, 250 g ai/ha, Flood; 0 to 100 scale where 0 is no effect and 100 is complete control; read-out: Sedge, Umbrella plant response rating
Procedure, shortened: as §2

[19] = 125 g ai/ha, preemergence, approx. 10 d

**Q.** How did the pest or weed control at 31 g/ha (Kochia (Kochia scoparia) [1]; 31 g ai/ha, Preemergence) turn out when `O=C(Nc1ccc(F)c(F)c1F)[C@H]1C(=O)N(O)CC[C@@H]1c1ccc(C(F)(F)F)cc1` [Compound 1108] was run?
**A.** 0%

**Q.** What about the pest or weed control at 125 g/ha (Kochia (Kochia scoparia) [1]; [19]) of the same molecule?
**A.** 0%

**Q.** What about the pest or weed control at 31 g/ha ([2]; 31 g ai/ha, Preemergence) of the same molecule?
**A.** 0%

**Q.** And the pest or weed control at 125 g/ha [2, 19]?
**A.** 0%

**Q.** And the pest or weed control at 31 g/ha ([3]; 31 g ai/ha, Preemergence)?
**A.** 0%

**Q.** And the pest or weed control at 125 g/ha [3, 19]?
**A.** 0%

**Q.** What about the pest or weed control at 31 g/ha ([4]; 31 g ai/ha, Preemergence) of the same molecule?
**A.** 0%

**Q.** What about the pest or weed control at 125 g/ha [4, 19] of the same molecule?
**A.** 0%

**Q.** And the pest or weed control at 31 g/ha ([5]; 31 g ai/ha, Preemergence)?
**A.** 0%

**Q.** What about the pest or weed control at 125 g/ha [5, 19] of the same molecule?
**A.** 0%

**Q.** What about the pest or weed control at 31 g/ha ([6]; 31 g ai/ha, Preemergence) of the same molecule?
**A.** 0%

**Q.** And the pest or weed control at 125 g/ha [6, 19]?
**A.** 0%

**Q.** And the pest or weed control at 125 g/ha ([7]; 125 g ai/ha, postemergence, visual injury on 0 to 100 scale (0 no effect, 100 complete control), approx. 10 d, read-out: Galium plant response rating)?
**A.** 0%

**Q.** What about the pest or weed control at 31 g/ha ([7]; Postemergence, 31 g ai/ha, visual injury after approx. 10 d, 0 to 100 scale, 0 no effect, 100 complete control, read-out: Plant response rating, Galium) of the same molecule?
**A.** 0%

**Q.** What about the pest or weed control at 125 g/ha (Kochia (Kochia scoparia) [8]; 125 g ai/ha, postemergence, visual injury on 0 to 100 scale (0 no effect, 100 complete control), approx. 10 d, read-out: Kochia plant response rating) of the same molecule?
**A.** 0%

**Q.** And the pest or weed control at 31 g/ha (Kochia (Kochia scoparia) [8]; Postemergence, 31 g ai/ha, visual injury after approx. 10 d, 0 to 100 scale, 0 no effect, 100 complete control, read-out: Plant response rating, Kochia)?
**A.** 0%

**Q.** And the pest or weed control at 125 g/ha ([9]; 125 g ai/ha, postemergence, visual injury on 0 to 100 scale (0 no effect, 100 complete control), approx. 10 d, read-out: Barnyardgrass plant response rating)?
**A.** 0%

**Q.** And the pest or weed control at 31 g/ha ([9]; Postemergence, 31 g ai/ha, visual injury after approx. 10 d, 0 to 100 scale, 0 no effect, 100 complete control, read-out: Plant response rating, Barnyardgrass)?
**A.** 0%

**Q.** What about the pest or weed control at 125 g/ha ([10]; 125 g ai/ha, postemergence, visual injury on 0 to 100 scale (0 no effect, 100 complete control), approx. 10 d, read-out: Blackgrass plant response rating) of the same molecule?
**A.** 0%

**Q.** And the pest or weed control at 31 g/ha ([10]; Postemergence, 31 g ai/ha, visual injury after approx. 10 d, 0 to 100 scale, 0 no effect, 100 complete control, read-out: Plant response rating, Blackgrass)?
**A.** 0%

**Q.** What about the plant injury at 125 g/ha (corn (Zea mays); 125 g ai/ha, postemergence, visual injury on 0 to 100 scale (0 no effect, 100 complete control), approx. 10 d, read-out: Corn plant response rating) of the same molecule?
**A.** 0%

**Q.** What about the Corn plant response rating (crop injury, 0 = no effect, 100 = complete kill) at 31 g/ha (corn (Zea mays); Postemergence, 31 g ai/ha, visual injury after approx. 10 d, 0 to 100 scale, 0 no effect, 100 complete control) of the same molecule?
**A.** 0%

**Q.** What about the pest or weed control at 125 g/ha ([11]; 125 g ai/ha, postemergence, visual injury on 0 to 100 scale (0 no effect, 100 complete control), approx. 10 d, read-out: Foxtail, Giant plant response rating) of the same molecule?
**A.** 0%

**Q.** And the pest or weed control at 31 g/ha ([11]; Postemergence, 31 g ai/ha, visual injury after approx. 10 d, 0 to 100 scale, 0 no effect, 100 complete control, read-out: Plant response rating, Foxtail, Giant)?
**A.** 0%

**Q.** What about the pest or weed control at 125 g/ha ([12]; 125 g ai/ha, postemergence, visual injury on 0 to 100 scale (0 no effect, 100 complete control), approx. 10 d, read-out: Pigweed plant response rating) of the same molecule?
**A.** 0%

**Q.** And the pest or weed control at 31 g/ha ([12]; Postemergence, 31 g ai/ha, visual injury after approx. 10 d, 0 to 100 scale, 0 no effect, 100 complete control, read-out: Plant response rating, Pigweed)?
**A.** 0%

**Q.** What about the pest or weed control at 125 g/ha ([13]; 125 g ai/ha, postemergence, visual injury on 0 to 100 scale (0 no effect, 100 complete control), approx. 10 d, read-out: Ragweed plant response rating) of the same molecule?
**A.** 0%

**Q.** And the pest or weed control at 31 g/ha ([13]; Postemergence, 31 g ai/ha, visual injury after approx. 10 d, 0 to 100 scale, 0 no effect, 100 complete control, read-out: Plant response rating, Ragweed)?
**A.** 0%

**Q.** What about the pest or weed control at 125 g/ha ([14]; 125 g ai/ha, postemergence, visual injury on 0 to 100 scale (0 no effect, 100 complete control), approx. 10 d, read-out: Ryegrass, Italian plant response rating) of the same molecule?
**A.** 0%

**Q.** And the pest or weed control at 31 g/ha ([14]; Postemergence, 31 g ai/ha, visual injury after approx. 10 d, 0 to 100 scale, 0 no effect, 100 complete control, read-out: Plant response rating, Ryegrass, Italian)?
**A.** 0%

**Q.** And the plant injury at 125 g/ha ([15]; 125 g ai/ha, postemergence, visual injury on 0 to 100 scale (0 no effect, 100 complete control), approx. 10 d, read-out: Wheat plant response rating)?
**A.** 0%

**Q.** And the plant injury at 31 g/ha ([15]; Postemergence, 31 g ai/ha, visual injury after approx. 10 d, 0 to 100 scale, 0 no effect, 100 complete control, read-out: Plant response rating, Wheat)?
**A.** 0%

**Q.** And the pest or weed control at 250 g/ha [16]?
**A.** 40%

**Q.** And the pest or weed control at 250 g/ha [17]?
**A.** 85%

**Q.** And the pest or weed control at 250 g/ha (rice (Oryra sativa))?
**A.** 20%

**Q.** And the pest or weed control at 250 g/ha [18]?
**A.** 75%
